Measured values: patent publication US9504754B2, “Curcuminoid complexes with enhanced stability, solubility and/or bioavailability” (South Dakota Board of Regents, priority 2013, dated 2016)

Key:
[1] = without any solubility enhancement techniques; cited from earlier work
[2] = Aqueous solubility of curcumin at different pH (FIG. 6A/6B); format: physicochemical

COc1cc(/C=C/C(=O)CC(=O)/C=C/c2ccc(O)c(OC)c2)ccc1O [free curcumin, (1E,6E)-1,7-bis(4-hydroxy-3-methoxyphenyl)-1,6-heptadiene-3,5-dione]
solubility in water [1]: less than 1 μg/ml | aqueous solubility of curcumin (colour of solution) ([2]; pH 1.2): absence of soluble curcumin | aqueous solubility of curcumin (colour of solution) ([2]; pH 4.5): absence of soluble curcumin | aqueous solubility of curcumin (colour of solution) ([2]; pH 7.0): absence of soluble curcumin | aqueous solubility of curcumin (colour of solution) ([2]; pH 7.4): absence of soluble curcumin
